From patent US20210308101A1, “METHODS OF TREATING FIBROMYALGIA” (Aptinyx Inc., priority 2019, published 2021)

Key:
NMDAR = NMDAR modulation (description); settings: low concentrations of endogenous agonist (glycine or D-serine), in the presence of glutamate
[1] = system: subjects with fibromyalgia; assay: Quantitative Sensory Testing, all outcomes; format: in vivo, human
Text: Other efficacy assessments, as used herein, include “Multi-Modal Automated Sensory Testing” (MAST) Pressure Pain Sensitivity, “Cuff Algometry,” and “Visual Stimulation Task.”
The multi-modal automated sensory testing (MAST) system was used to measure localized pressure sensitivity at an asymptomatic, neutral body site, the thumbnail. The MAST system is a nonsignificant-risk investigational device that applies a computer-controlled mechanical stimulation at precisely controlled intensity levels and durations. The validity in the measurement of centrally-mediated pain sensitivity has been discussed extensively. The MAST system delivered an ascending series of computer-controlled, 5-second pressures at 20-second intervals (with 20% jitter) to the subject's thumbnail bed, beginning at 0.25 to 0.5 kg/cm^2 and increasing in steps of 0.25 to 0.50 kg/cm^2. Pain intensity was rated after each pressure on a 0 to 100 NRS. Testing was terminated when the first of 3 possible stop conditions were met: 1) subject reached her personal pain tolerance and requested to stop the test, 2) subject reported a pain intensity rating of >80, or 3) the maximum pressure of 10 kg/cm^2 was delivered. A regression model was used fit the stimulus-response data obtained from this procedure and interpolate Pain50, defined as the pressure intensity that evokes a moderate level of suprathreshold pressure pain (i.e., 50/100). Additional derived variables included: 1) Pressure pain threshold, defined as the first pressure in a series of at least 2 consecutive pressures that elicited a NRS pain rating >0; 2) slope of the stimulus-response function as a measure of the rate of pain increase; and 3) pressure pain tolerance, defined as the last pressure recorded in the stimulus response profile. […]
Localized pressure pain sensitivity was also measured bilaterally at 3 additional body regions: trapezius, wrist, and patella. […] Sensitivity was measured using a digital algometer with a 1-cm^2 flat rubber probe. […]
Large volume, deep tissue pressure sensitivity was assessed by cuff algometry. […]

[2] = system: subjects with fibromyalgia; assay: QST: visual stimulation task; format: in vivo, human
Text: To measure non-somatic sensitivity, a series of nonpainful, yet aversive, visual stimuli were presented to each subject. This 10-minute task consisted of 2 different visual stimuli presented in an alternating block design. The control stimulus was a solid color background, whereas experimental stimulus was a flashing annulus checkerboard. These 2 stimuli were interleaved into independent 8- to 30-second blocks throughout the duration of the task. Subjects viewed the stimuli on a calibrated liquid crystal display computer screen designed for high resolution image presentation. Stimuli were presented at varying brightness levels and/or color patterns, and each stimulus presentation was rated on scales of sensory intensity and unpleasantness. […] A redacted version of this task was administered during fMRI.
QST data were analyzed at the University of Michigan CPFRC. Dependent variables were the MAST derived outcomes (Pain50, pressure pain threshold, pain tolerance, and pain ratings at 2 kg/cm2), algometry-derived pressure pain thresholds (mean of three trials) at each anatomical site, average cuff intensity ratings (mean of ratings at all stimulus levels during the ascending or random sequences), and average visual task unpleasantness and brightness intensity ratings (mean of ratings at all stimulus levels). Practice data were not analyzed. Overall pain intensity and unpleasantness NRS scores as well as stimulus response curves for each test were assessed during post hoc analyses. Data points displaying measurement artefacts, including device malfunction or user error, were set to missing. Single subject QST variables were analyzed using paired t-tests and/or nonparametric Wilcoxon signed-rank tests in SPSS or R.

How did the “activity at the NMDAR” value (NMDAR) turn out when CC(C)C(=O)N1CCC[C@]12CN([C@H](C(N)=O)[C@@H](C)O)C2=O [NYX-2925, (2S, 3R)-3-hydroxy-2-((R)-5-isobutyryl-1-oxo-2,5-diazaspiro[3.4]octan-2-yl)butanamide] was run?
Its value is “partially activates the NMDAR”.

And the “effects on QST relative to placebo” value ([1]; NYX-2925 20 mg)?
The value was “no significant or marginal effects”.

What about the “differences on QST between doses” value ([1]; NYX-2925 20 mg versus NYX-2925 200 mg) of the same molecule?
The value was “no significant or marginal differences”.

What about the “effects on QST outcomes relative to placebo, other than right trapezius threshold” value ([1]; NYX-2925 200 mg) of the same molecule?
Its value is “no additional significant or marginal effects”.

And the “overall visual task unpleasantness” value ([2]; NYX-2925 200 mg (Week 6))?
Its value is 42.31±29.20.

What about the “rating of unpleasantness evoked by the brightest visual stimulus” value ([2]; NYX-2925 200 mg (Week 6)) of the same molecule?
The value was 59.97±35.46 NRS.

What about the “rating of unpleasantness evoked by the brightest visual stimulus” value ([2]; Week 7 follow-up, p=0.037 vs 200 mg) of the same molecule?
The value was 53.13±36.88 NRS.

And the “overall visual task unpleasantness” value ([2]; Week 7 follow-up, p=0.040 vs 200 mg)?
The value was 33.85±28.07.
